These results are taken from patent publication US9447092B2, “Pharmaceutically active compounds” (CANCER RESEARCH TECHNOLOGY LIMITED, priority 2012, dated 2016).

The nature of data set [1]: Log D measurement. Type of data set: physicochemical. The following applies: pH 7.4, experimentally determined value. Here is the method: Physicochemical properties: Log D and pKa measurements were performed by Pharmorphix® Solid State Services, Member of the Sigma-Aldrich Group, Cambridge, UK.
For data set [2], the target named is Aurora-B (Homo sapiens (Human), UniProt Q96GD4). Nature of the data set: KINOMEScan Aurora-B. Format: binding. To be noted: read-out: % control Aurora-B. The procedure:
(§1) Kinase selectivity profiling: Kinase profiling using the KINOMEScan™ technology and Kd determinations were performed by KINOMEscan, a Division of DiscoveRx Corporation, San Diego, Calif., USA; www.kinomescan.com.

For data set [3], the target named is FLT3 (Homo sapiens (Human), UniProt P36888). Nature of the data set: KINOMEScan FLT3. Type of data set: binding. The following applies: 1 μM primary screening. The procedure: as §1
The nature of data set [4]: Human liver microsomal stability. Format: in vitro ADME. To be noted: human liver microsomes, after a 30 min incubation. The procedure:
Compounds (10 μM) were incubated with mixed gender pooled human liver microsomes (1 mg·mL^−1) protein in the presence of NADPH (1 mM), UDPGA (2.5 mM) and MgCl2 (3 mM) in phosphate buffered saline (10 mM) at 37° C. Incubations were conducted for 0 and 30 minutes. Control incubations were generated by the omission of NADPH and UDPGA from the incubation reaction. The percentage compound remaining was determined after analysis by LCMS.
A general note: Liver microsomes are a subcellular fraction often used to study metabolism.

Data set [5] addresses T1, hERG (Homo sapiens (Human), UniProt Q12809).
In data set [6] the target is CYP3A4 (Homo sapiens (Human), UniProt P08684). Nature of the data set: Inhibition of CYP isozymes in human liver microsomes, CYP3A4. To be noted: read-out: Estimated IC50 CYP3A4, probe Midazolam.
CYP3A4, sequence (P08684 whole entry): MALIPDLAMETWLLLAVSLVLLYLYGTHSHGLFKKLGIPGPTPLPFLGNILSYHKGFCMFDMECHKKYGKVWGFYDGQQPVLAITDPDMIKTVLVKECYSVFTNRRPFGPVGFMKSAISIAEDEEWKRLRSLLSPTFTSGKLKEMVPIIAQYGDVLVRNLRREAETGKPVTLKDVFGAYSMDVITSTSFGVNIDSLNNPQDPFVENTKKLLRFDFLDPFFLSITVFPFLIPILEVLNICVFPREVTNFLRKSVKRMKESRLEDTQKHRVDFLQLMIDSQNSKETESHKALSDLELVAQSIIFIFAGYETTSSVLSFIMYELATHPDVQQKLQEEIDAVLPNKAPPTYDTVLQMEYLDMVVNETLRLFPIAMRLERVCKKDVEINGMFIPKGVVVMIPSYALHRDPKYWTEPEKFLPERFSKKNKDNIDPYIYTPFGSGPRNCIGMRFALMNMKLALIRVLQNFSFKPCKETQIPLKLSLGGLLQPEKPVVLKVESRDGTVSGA
Data set [7] has as its target FLT3(D835H) (Homo sapiens (Human), UniProt P36888, D835H). Nature of the data set: KINOMEScan FLT3(D835H). Format: binding. To be noted: 1 μM primary screening. Here is the method:
as §1

Data set [8] has as its system histone H-3 phosphorylation at S10. Nature of the data set: 4-day PK/PD study: histone H-3 phosphorylation in MV4-11 xenografts. Format: in vivo, mouse. To be noted: 50 and 100 mg/kg oral twice daily, 4 days. The procedure:
(§2) Tumour samples were obtained 2 h after the final dose. Total histone H3, total Stat5 and GAPDH were used as loading controls.

Data set [9] in a line: In vivo full PK in mouse.
The target in data set [10] is CYP2A6 (Homo sapiens (Human), UniProt P11509). Nature of the data set: Inhibition of CYP isozymes in human liver microsomes, CYP2A6. The following applies: read-out: Estimated IC50 CYP2A6, probe Coumarin.
CYP2A6, sequence (P11509 whole entry): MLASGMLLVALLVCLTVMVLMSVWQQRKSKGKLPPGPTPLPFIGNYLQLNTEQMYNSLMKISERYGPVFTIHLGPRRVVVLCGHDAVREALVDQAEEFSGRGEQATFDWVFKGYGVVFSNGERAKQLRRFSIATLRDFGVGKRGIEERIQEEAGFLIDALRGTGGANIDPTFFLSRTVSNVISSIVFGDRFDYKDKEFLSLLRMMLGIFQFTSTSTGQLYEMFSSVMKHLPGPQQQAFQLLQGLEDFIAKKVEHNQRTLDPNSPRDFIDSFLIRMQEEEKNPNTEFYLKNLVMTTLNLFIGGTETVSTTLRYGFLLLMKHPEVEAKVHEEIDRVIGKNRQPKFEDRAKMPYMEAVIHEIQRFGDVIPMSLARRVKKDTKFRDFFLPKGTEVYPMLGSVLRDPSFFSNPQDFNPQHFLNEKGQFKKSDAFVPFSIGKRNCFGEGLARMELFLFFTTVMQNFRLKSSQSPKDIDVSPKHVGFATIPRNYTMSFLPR
In data set [11] the test system is 442-kinase panel (386 non-mutant kinases). Nature of the data set: KINOMEScan kinase selectivity profiling, 442-kinase panel. Type of data set: binding. The following applies: 1 μM; >90% competition. Here is the method:
as §1

Data set [12] has as its target FLT3(D835Y) (Homo sapiens (Human), UniProt P36888, D835Y). Nature of the data set: KINOMEScan FLT3(D835Y). Type of data set: binding. The following applies: 1 μM primary screening. Here is the method:
as §1

Data set [13] concerns MV4-11 human tumour xenografts. Nature of the data set: Human tumour xenograft efficacy study (MV4-11). Type of data set: in vivo. The source says:
Brit J Cancer 102: 1555-1577, 2010.
(In general: In xenograft studies the graft and the host belong to different species.)

A short description of data set [14]: Mouse liver microsomal stability. Format: in vitro ADME. To be noted: mouse liver microsomes, after a 30 min incubation. Here is the method:
Compounds (10 μM) were incubated with male CD1 mouse liver microsomes (1 mg·mL^−1) protein in the presence of NADPH (1 mM), UDPGA (2.5 mM) and MgCl2 (3 mM) in phosphate buffered saline (10 mM) at 37° C. Incubations were conducted for 0 and 30 minutes. Control incubations were generated by the omission of NADPH and UDPGA from the incubation reaction. The percentage compound remaining was determined after analysis by LCMS.

For data set [15], the target named is FLT3-ITD (Homo sapiens, UniProt P36888). Nature of the data set: KINOMEScan FLT3-ITD. Type of data set: binding. To be noted: 1 μM primary screening. The procedure: as §1
The test system of data set [16] is HCT116 human colon carcinoma. Nature of the data set: Cell viability assay, HCT116. The following applies: HCT-116. Format: cell-based.
For data set [17], the system named is phosphorylation of STAT5 at Y694. Nature of the data set: 4-day PK/PD study: STAT5 phosphorylation in MV4-11 xenografts. Format: in vivo, mouse. To be noted: 50 and 100 mg/kg oral twice daily, 4 days. Here is the method:
as §2

Data set [18] concerns the target CYP2D6 (Homo sapiens (Human), UniProt P10635). Nature of the data set: Inhibition of CYP isozymes in human liver microsomes, CYP2D6.
The target of data set [19] is CYP2C19 (Homo sapiens (Human), UniProt P33261). Nature of the data set: Inhibition of CYP isozymes in human liver microsomes, CYP2C19.
CYP2C19, sequence (P33261 whole entry): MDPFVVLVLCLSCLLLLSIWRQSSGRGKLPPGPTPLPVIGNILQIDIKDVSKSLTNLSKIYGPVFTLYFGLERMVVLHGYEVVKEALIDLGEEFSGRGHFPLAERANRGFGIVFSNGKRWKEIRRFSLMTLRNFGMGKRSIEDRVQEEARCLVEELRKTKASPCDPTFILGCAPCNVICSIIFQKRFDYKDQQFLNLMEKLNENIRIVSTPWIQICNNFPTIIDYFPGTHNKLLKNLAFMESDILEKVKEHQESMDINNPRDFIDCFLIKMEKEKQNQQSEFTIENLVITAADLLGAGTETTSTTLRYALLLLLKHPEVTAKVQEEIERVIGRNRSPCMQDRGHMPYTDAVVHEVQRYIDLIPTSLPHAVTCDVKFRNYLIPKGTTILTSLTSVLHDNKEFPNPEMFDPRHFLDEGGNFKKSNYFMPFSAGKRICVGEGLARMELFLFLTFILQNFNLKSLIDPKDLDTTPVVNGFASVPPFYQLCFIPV
The target of data set [20] is Aurora-A (Homo sapiens (Human), UniProt O14965). The following applies: read-out: Aurora-A IC50; biochemical assay. Here is the method:
Aurora kinase assays: Aurora kinase IC50 values were determined as previously described.^26, 36

In data set [21] the target is CYP1A2 (Homo sapiens (Human), UniProt P05177). Nature of the data set: Inhibition of CYP isozymes in human liver microsomes, CYP1A2.
CYP1A2, sequence (P05177 whole entry): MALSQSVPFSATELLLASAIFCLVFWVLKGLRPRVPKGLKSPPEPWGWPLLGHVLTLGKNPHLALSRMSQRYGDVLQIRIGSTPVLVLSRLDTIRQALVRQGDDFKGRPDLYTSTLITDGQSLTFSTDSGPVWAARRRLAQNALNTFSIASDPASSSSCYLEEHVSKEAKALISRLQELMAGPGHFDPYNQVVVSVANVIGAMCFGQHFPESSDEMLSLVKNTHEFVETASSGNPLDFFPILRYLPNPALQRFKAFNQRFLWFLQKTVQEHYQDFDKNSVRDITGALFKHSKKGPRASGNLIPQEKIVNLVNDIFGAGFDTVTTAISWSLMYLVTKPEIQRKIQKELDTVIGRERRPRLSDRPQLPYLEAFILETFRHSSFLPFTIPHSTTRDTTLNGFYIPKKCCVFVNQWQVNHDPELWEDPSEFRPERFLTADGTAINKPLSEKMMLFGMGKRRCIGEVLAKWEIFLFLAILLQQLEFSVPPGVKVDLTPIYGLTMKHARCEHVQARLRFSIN
For data set [22], the target named is CYP2C9 (Homo sapiens (Human), UniProt P11712). Nature of the data set: Inhibition of CYP isozymes in human liver microsomes, CYP2C9.
CYP2C9, sequence (P11712 whole entry): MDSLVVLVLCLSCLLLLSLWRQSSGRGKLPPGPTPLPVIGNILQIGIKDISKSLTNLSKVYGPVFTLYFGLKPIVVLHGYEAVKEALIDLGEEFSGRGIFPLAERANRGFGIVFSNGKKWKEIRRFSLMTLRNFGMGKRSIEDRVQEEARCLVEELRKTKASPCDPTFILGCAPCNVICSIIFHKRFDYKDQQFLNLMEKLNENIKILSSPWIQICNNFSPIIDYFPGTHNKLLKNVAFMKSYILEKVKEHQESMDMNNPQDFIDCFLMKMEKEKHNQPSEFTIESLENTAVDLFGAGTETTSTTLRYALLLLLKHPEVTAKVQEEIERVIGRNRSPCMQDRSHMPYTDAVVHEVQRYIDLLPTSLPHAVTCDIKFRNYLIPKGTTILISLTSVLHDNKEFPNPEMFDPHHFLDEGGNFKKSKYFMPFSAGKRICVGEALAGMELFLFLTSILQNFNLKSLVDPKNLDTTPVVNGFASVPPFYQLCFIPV
In data set [23] the target is T1, hERG. Nature of the data set: hERG inhibition (cell-based electrophysiology, hERG tail current). (In general: The hERG channel carries a current that helps repolarise heart muscle cells.)
The test system of data set [24] is SW620 human colon carcinoma xenograft. To be noted: literature (ref 26); cited from earlier work.

Structures are written as SMILES. pIC50: −log10 of the molar value. Several values for one entry are separate records, joined by “and”; a condition that tells them apart may be missing. Equal entries are not always repeated. Where two headings read alike, the source gives them in different places.

T1 sequence (Q12809 whole entry): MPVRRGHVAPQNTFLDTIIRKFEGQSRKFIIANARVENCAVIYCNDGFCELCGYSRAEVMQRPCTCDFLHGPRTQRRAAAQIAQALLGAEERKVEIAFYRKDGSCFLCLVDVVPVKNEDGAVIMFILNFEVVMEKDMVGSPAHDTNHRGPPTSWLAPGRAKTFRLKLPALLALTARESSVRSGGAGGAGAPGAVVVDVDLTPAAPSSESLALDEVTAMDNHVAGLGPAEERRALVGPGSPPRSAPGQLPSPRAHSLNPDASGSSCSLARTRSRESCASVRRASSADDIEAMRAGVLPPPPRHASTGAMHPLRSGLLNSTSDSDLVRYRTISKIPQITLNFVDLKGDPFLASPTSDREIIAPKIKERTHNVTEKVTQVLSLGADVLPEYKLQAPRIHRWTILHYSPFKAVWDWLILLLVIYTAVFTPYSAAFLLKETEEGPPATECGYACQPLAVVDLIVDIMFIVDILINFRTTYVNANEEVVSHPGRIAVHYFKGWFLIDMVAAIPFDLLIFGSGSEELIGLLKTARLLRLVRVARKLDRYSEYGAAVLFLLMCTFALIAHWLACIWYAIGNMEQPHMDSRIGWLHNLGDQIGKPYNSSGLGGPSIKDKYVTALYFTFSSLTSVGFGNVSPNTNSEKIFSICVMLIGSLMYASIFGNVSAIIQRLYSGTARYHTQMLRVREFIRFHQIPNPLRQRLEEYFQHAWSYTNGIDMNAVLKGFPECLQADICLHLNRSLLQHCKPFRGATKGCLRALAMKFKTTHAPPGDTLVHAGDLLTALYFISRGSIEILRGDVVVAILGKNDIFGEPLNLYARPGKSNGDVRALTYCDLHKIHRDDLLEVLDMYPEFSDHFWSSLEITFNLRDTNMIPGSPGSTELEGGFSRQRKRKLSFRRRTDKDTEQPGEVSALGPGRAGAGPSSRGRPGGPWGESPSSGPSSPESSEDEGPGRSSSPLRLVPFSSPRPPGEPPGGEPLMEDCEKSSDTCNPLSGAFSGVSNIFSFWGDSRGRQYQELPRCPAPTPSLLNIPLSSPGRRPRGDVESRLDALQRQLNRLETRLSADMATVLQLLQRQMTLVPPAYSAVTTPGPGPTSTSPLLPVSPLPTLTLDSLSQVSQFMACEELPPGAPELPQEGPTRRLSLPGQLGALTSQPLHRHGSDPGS
CYP2D6, sequence (P10635 whole entry): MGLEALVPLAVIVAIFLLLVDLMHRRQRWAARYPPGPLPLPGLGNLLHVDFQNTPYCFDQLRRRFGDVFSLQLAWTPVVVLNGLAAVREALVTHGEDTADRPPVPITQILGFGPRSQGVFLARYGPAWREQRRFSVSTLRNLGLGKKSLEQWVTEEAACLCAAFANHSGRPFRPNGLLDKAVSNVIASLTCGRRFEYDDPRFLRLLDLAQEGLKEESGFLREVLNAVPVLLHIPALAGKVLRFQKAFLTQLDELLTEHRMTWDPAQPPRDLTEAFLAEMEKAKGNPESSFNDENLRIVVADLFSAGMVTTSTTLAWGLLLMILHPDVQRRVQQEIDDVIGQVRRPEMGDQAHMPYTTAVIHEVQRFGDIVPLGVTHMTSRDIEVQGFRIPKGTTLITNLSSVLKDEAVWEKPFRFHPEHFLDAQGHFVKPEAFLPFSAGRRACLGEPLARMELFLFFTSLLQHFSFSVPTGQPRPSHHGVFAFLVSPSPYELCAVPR
Aurora-A, sequence (O14965 whole entry): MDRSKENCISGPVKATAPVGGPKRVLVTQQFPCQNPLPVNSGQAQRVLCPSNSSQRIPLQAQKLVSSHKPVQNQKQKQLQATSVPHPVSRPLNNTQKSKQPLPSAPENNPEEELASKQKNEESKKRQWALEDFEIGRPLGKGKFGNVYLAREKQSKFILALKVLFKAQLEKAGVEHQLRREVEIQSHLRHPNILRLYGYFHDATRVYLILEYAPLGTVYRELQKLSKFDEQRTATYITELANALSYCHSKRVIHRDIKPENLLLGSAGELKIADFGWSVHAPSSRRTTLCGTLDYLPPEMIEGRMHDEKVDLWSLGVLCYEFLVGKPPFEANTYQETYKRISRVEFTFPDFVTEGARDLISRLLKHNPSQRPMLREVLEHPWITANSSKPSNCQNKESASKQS
Aurora-B, sequence (Q96GD4 whole entry): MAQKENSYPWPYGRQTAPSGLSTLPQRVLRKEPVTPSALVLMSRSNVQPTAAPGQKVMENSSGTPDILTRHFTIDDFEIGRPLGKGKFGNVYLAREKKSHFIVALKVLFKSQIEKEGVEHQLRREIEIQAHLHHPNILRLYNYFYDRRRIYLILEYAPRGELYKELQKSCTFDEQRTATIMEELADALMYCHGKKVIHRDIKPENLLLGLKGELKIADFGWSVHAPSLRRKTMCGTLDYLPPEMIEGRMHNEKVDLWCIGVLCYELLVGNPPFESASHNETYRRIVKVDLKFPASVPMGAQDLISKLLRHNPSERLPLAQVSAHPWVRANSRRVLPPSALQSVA

On to `Cc1nn(C)cc1-c1nc2c(N3CCN(Cc4ccc(Cl)cc4)CC3)c(Cl)cnc2[nH]1` [Example 1, 6-Chloro-7-(4-(4-chlorobenzyl)piperazin-1-yl)-2-(1,3-dimethyl-1H-pyrazol-4-yl)-3H-imidazo[4,5-b]pyridine], for which, in data set [1], the LogD7.4 result is “^cLogD7.4 = 3.84 (experimentally determined value)”. For the same compound, the remaining binding at 1 µM in data set [2] stood at 1%. Also, in data set [3], the “competition for FLT3 kinase” value is recorded as “greater than 94%”. For the same compound, the “HLM: Percentage of parent compound metabolised” value (“HLM: Percentage” below) in [4] is on record as 10%. For the same compound, the pIC50 in data set [5] is below 4.60; in data set [6], below 4.30; in data set [10] it was below 4.30. For the same compound, the “competition for FLT3(D835H)” value in data set [7] is “greater than 94%”. Moreover, in data set [8], the “histone H-3 phosphorylation” value is on record as “clear inhibition”. The volume of distribution (Vd) in data set [9] (female, Balb/C, plasma, 5 mg/kg) was 0.066 L and ~3.3 L/kg. In data set [9] (female, Balb/C, plasma, iv, 5 mg/kg), this compound had a clearance of 0.967 mL/min. For the same compound, the “AUCinf, (iv)” value in data set [9] (iv 5 mg/kg) turned out to be 3.753 µM·h. For the same compound, the “Cl, (iv)” value in [9] (iv 5 mg/kg) was found to be 0.058 L/h. Moreover, the “t½, (iv)” value in data set [9] (iv 5 mg/kg) stood at 50.4 min. Besides, the “F % (po)” value in data set [9] (oral 5 mg/kg) was found to be 100%. Also, in [11], the “hits from the 386 non-mutant kinases tested” value is listed as 22. The “competition for FLT3(D835Y)” value in data set [12] is recorded as “greater than 94%”. Besides, the “day single mice were culled (mean tumour volume increased by over 500%)” value is 28 days and 31 days in data set [13] (50 mg/kg); 46 days and 56 days in [13] (100 mg/kg). Also, in data set [13] (50 mg/kg dosing schedule), the “tumour volume, % of the initial volume after 11 days” value came out at 42%. In addition, the “tumours when therapy was discontinued after 11 days” value in data set [13] (100 mg/kg dosing schedule) is given as “undetectable”. In addition, the “toxicity as defined by body weight loss” value in data set [13] (athymic mice, oral 50 and 100 mg/kg) was “no observed toxicity”. Besides, the “growth of MV4-11 human tumour xenografts” value in data set [13] (athymic mice, oral 50 and 100 mg/kg, dose dependent) is “strongly inhibited the growth”. Also, in [13] (each treatment group (50 and 100 mg/kg), study terminated on day 60), the “mice that failed to develop progressively growing tumours” value was found to be 60%. Also, in data set [14], the “MLM: Percentage of parent compound metabolised” value (“MLM: Percentage” for short) amounted to 34%. Besides, the “competition for FLT3-ITD” value in data set [15] is “greater than 94%”. For the same compound, in data set [16], the GI50 turned out to be 0.3 µM. For the same compound, the STAT5 phosphorylation result in data set [17] is “inhibition of STAT5 phosphorylation”.

On to `Cn1cc(-c2nc3c(N4CCN(Cc5cccnc5)CC4)c(Br)cnc3[nH]2)cn1` [Comparator 1, 6-bromo-2-(1-methyl-1H-pyrazol-4-yl)-7-(4-(pyridine-3-ylmethyl)piperazin-1-yl)-3H-imidazo[4,5-b]pyridine], for which the pIC50 in data set [5] is 5.26; in data set [6] it was above 6.00; in data set [18] it was 5.00 to 6.00; in data set [19] it was 4.30 to 5.00; in [20] it was 7.49; in data set [10], below 4.30. The pIC50 in data set [21] and in [22] was 4.30 to 5.00 each time.

`Cc1nc(CN2CCN(c3c(Cl)cnc4[nH]c(-c5cn(C)nc5C)nc34)CC2)no1` [Example 3, 3-((4-(6-Chloro-2-(1,3-dimethyl-1H-pyrazol-4-yl)-3H-imidazo[4,5-b]pyridin-7-yl)piperazin-1-yl)methyl)-5-methyl-1,2,4-oxadiazole]: in data set [4], the “HLM: Percentage” value was 20%. In addition, the pIC50 was below 4.30 in data set [6], below 4.30 in data set [19], 5.02 in [23] and below 4.30 in [10]. For the same compound, the “MLM: Percentage” value in [14] stood at 58%.

Take `Cc1nn(C)c(C)c1-c1nc2c(N3CCN(Cc4cccnc4)CC3)c(Br)cnc2[nH]1` [Comparator 2, 6-bromo-7-(4-(pyridine-3-ylmethyl)piperazin-1-yl)-2-(1,3,5-trimethyl-1H-pyrazol-4-yl)-3H-imidazo[4,5-b]pyridine]: the pIC50 was 4.97 in data set [5]; above 6.00 in data set [6]; 4.30 to 5.00 in data set [18]; 4.30 to 5.00 in [19]; 6.52 in data set [20]; below 4.30 in data set [10]. In addition, the pIC50 in data set [22] was 4.30 to 5.00.

`Cc1cc(CN2CCN(c3c(Br)cnc4nc(-c5ccc(N6CCN(C)CC6)cc5)[nH]c34)CC2)no1` [CCT137690, reference compound]: the “HLM: Percentage” value in data set [4] was found to be 86%. Moreover, the “growth of a SW620 human colon carcinoma xenograft in vivo” value in data set [24] is “inhibits the growth”.

Regarding `Cc1nn(C)cc1-c1nc2c(N3CCN(Cc4ncon4)CC3)c(Cl)cnc2[nH]1` [Example 2, 3-((4-(6-Chloro-2-(1,3-dimethyl-1H-pyrazol-4-yl)-3H-imidazo[4,5-b]pyridin-7-yl)piperazin-1-yl)methyl)-1,2,4-oxadiazole], the “HLM: Percentage” value in data set [4] is 22%. For the same compound, in data set [6], the negative-log IC50 (pIC50) was below 4.30. The “MLM: Percentage” value in data set [14] stood at 67%.

As a reminder, the pIC50 is −log10 of the IC50, conventionally taken in molar units. For orientation: Vd means a proportionality between amount in the body and measured concentration, not a real space. High values mean extensive tissue distribution, low ones confinement near the circulation. Usually clearance stands for the rate of elimination divided by the concentration. High values mean a high capacity for elimination, low ones a low capacity for elimination. What is called GI50 is the concentration giving 50% growth inhibition. Read a low GI50 as greater sensitivity of the cells.
